Values of other authors as cited in patent publication US20040096950A1, “Crystal structure of beta site APP cleaving enzyme (BACE) and methods of use thereof” (priority 2002, published 2004).
Where a SMILES comes first, the peptide text is derived from it. [ ]: non-standard residue; d: D form. The star is where a group is joined. Sta = CC(C)C[C@H](N)[C@@H](O)CC(=O)O; Isovaleryl = CC(C)CC(=O)*

Biological target: BACE (Homo sapiens, UniProt P56817)
Details: background statement, no concentration given

Chain of BACE (P56817 46-501): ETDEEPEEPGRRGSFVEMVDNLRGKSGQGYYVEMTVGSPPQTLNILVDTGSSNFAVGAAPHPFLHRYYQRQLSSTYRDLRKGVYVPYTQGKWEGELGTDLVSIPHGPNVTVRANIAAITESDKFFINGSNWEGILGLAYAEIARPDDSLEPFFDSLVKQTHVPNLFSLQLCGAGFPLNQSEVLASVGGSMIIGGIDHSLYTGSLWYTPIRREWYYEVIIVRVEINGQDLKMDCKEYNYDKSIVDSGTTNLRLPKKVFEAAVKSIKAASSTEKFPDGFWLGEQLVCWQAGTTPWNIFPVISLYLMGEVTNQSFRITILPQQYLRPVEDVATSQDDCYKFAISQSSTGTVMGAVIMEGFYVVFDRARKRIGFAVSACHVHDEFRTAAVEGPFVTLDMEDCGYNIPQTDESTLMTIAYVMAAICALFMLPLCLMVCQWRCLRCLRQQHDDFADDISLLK

inhibition of BACE: inhibited weakly
SMILES: CC(C)CC(=O)N[C@H](C(=O)N[C@H](C(=O)N[C@@H](CC(C)C)[C@@H](O)CC(=O)N[C@@H](C)C(=O)N[C@@H](CC(C)C)[C@@H](O)CC(=O)O)C(C)C)C(C)C [pepstatin] (Isovaleryl-VV[Sta]A[Sta]-OH)
